These results are taken from article PMC6272715, “Discovery of Novel Small Molecule Anti-HCV Agents via the CypA Inhibitory Mechanism Using O-Acylation-Directed Lead Optimization” (Molecules, 2015).

One data set is described as follows: in vivo. To be noted: male, SD, rat, iv, i.v. 2 mg 25/kg; for AUC(0-inf): AUC0-∞.
For another data set, the system named is HCV Con1-1b replicon. Description: HCV Con1-1b subgenomic replicon assay. Type of data set: cell-based. To be noted: Hepatitis C virus; Table 4; read-out: Anti-HCV Activity EC50 ± SD Replicon Assay Con1-1b. (In general: A replicon is a self-replicating genome or part of one, used to study replication in cells.)
A further data set relates to HCV H77-1a replicon. The data set can be described thus: HCV H77-1a subgenomic replicon assay. Type of data set: cell-based. To be noted: Hepatitis C virus; Table 4; read-out: Anti-HCV Activity EC50 ± SD Replicon Assay H77-1a.
The conditions of data set [1]: rats, intravenous injection of 25 (2 mg∙kg^−1).
For the next data set, the system named is B spleen cells. The data set can be described thus: Spleen cells proliferation inhibition assay (MTT), B spleen cells. Type of data set: cell-based, mouse (ICR). To be noted: mouse spleen cells, 72 h, read-out: B Spleen Cells IC50 ± SD.
Data set [2] deals with JFH1-2a virus (wild type). The data set can be described thus: HCV virus assay, JFH1-2a wild type, Huh 7.5.1 cells. To be noted: Hepatitis C virus.
The next data set concerns HCV JFH1-2a replicon. The data set can be described thus: HCV JFH1-2a subgenomic replicon assay (Renilla luciferase, Huh 7.5.1 replicon cells). To be noted: Hepatitis C virus. Type of data set: cell-based.
A short description of data set [3]: Cell proliferation (cytotoxicity) assay, WST-1. Type of data set: cell-based. The settings on record: human. Here is the method:
Cell Proliferation Assay: Huh 7.5.1 cells were seeded at a density of 2 × 10^4 cells per well in 96-well plates overnight. The cells were respectively incubated with serial diluted compounds for 48 h, and the viability of Huh7.5.1 cells was determined in 96-well tissue culture plates using cell proliferation reagent WST-1 (Roche, Basel, Switzerland). The absorbance (OD450 /reference OD630) was measured to detect the cytotoxicity of compounds, according to the manufacturer’s protocol of Cell Proliferation Reagent WST-1.
On the technique in general: Formazan colour is commonly taken as a measure of viable cells.

For another data set, the system named is JFH1-2a (S282T) virus. Description: HCV virus assay, mutant JFH1-2a (S282T) virus strain. Type of data set: cell-based. To be noted: Hepatitis C virus, read-out: Anti-HCV Activity (Virus Assay) EC50 ± SD JFH1-2a (S282T).
The next data set deals with T spleen cells. Description: Spleen cells proliferation inhibition assay (MTT), T spleen cells. Type of data set: cell-based, mouse (ICR). The settings on record: mouse spleen cells, 72 h, read-out: T Spleen Cells IC50 ± SD. As to the method: Preparation of Splenocyte Suspension: The spleen was aseptically taken from female ICR mice strains (6–8 weeks-old, 20 ± 2 g), crushed gently and separated into single cells by squeezing in 20 mL RPMI 1640 medium (Invitrogen, shanghai, China). The cells obtained were passed through […] nylon cell strainer and centrifuged at 1000 rpm∙min^−1 for 5 min at RT. Pellets were added into 10 mL erythrocytes lysis buffer (150 mM NH4Cl, 10 mM KHCO3 and 0.1 mM EDTA) followed by centrifugation to remove erythrocytes. After washing twice with complete medium (RPMI 1640 containing 100 U∙mL^−1 of penicillin, 100 U∙mL^−1 of streptomycin and 10% FBS), they were re-suspended in the complete medium and used for cell culture.
After 72 h of incubation, the cell growth was evaluated with MTT assay. The assay plates were added 10 μL of 5 mg∙mL^−1 MTT per well and incubated for 4 h. The formazan generated was solubilized with 100 μL of solution (10% SDS, 5% isobutyl alcohol, and 10 mM HCl) after incubated at 37 °C overnight. The absorption at 580 nm relative to 680 nm was measured by SpectraMax Plus 384 Reader (Molecular Devices, Shanghai, China).

For a further data set, the target named is CypA (Homo sapiens, UniProt P62937). Description: CypA enzyme inhibition assay (chymotrypsin-coupled PPIase assay). Type of data set: biochemical. The settings on record: mean ± SD of five independent experiments. As to the method:
The PPIase activity of CypA was conducted in a coupled assay with chymotrypsin using the synthetic tetrapeptide N-succinyl-Ala-Ala-Pro-Phe-p-nitroanilide (Sigma, Shanghai, China) as described in [34] with small modifications. The assay buffer (20 mM Tris-HCl, 50 mM NaCl, pH 7.8) and CypA were precooled at 4 °C and mixed with 0.4 mg∙mL^−1 chymotrypsin (20 mg∙mL^−1 in 1 mM HCl). The reaction was initiated by adding peptide substrate (2 mg∙mL^−1 in 500 mM LiCl in tetrahydrofuran (THF)). […] Absorbance readings were collected every 0.1 s and the temperature was controlled at 4 °C during the assay. The progress curves were analyzed by nonlinear least-squares fit. The inhibition assays of compounds were performed in the same manner as above-mentioned. […] of test compounds in DMSO, at various concentrations, was added to the CypA solution in the assay buffer. After being preincubated for 1 h at 4 °C, the assay was started by the addition of chymotrypsin and the substrate. To calculate the half-maximal inhibitory concentration (IC50), a percent of the remaining PPIase activity was plotted against the common logarithm of the compound concentration, and the data were fitted using the sigmoidal fitting model of Origin 7.0 software.

A further data set deals with HCV subgenomic replicon. To be noted: cited from earlier work.
[4] abbreviates: SD rats, Mean ± SD (Rat 1 and 3).
The mark [5] stands for this setting: Huh-7.5.1, read-out: Anti-HCV Activity (Virus Assay) EC50 ± SD JFH1-2a (Wild Type).
Setting [6] is: Huh-7.5.1, read-out: Anti-HCV Activity EC50 ± SD Virus Assay JFH1-2a.
The mark [7] stands for this setting: Table 1, mean ± SD of three independent experiments, read-out: Anti-HCV JFH1-2a Replicon Assay EC50 ± SD.
[8] abbreviates: Table 4, read-out: Anti-HCV Activity EC50 ± SD Replicon Assay JFH1-2a.

Like-named read-outs stand apart in the source and are kept apart here.

Sequence of CypA (P62937 whole entry): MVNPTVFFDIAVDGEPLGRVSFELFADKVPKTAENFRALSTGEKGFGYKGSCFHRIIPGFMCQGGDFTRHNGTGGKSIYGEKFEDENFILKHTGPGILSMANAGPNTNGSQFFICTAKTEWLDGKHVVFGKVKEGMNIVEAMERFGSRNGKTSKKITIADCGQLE
Protocol for B spleen cells: Preparation of Splenocyte Suspension: The spleen was aseptically taken from female ICR mice strains (6–8 weeks-old, 20 ± 2 g), crushed gently and separated into single cells by squeezing in 20 mL RPMI 1640 medium (Invitrogen, shanghai, China). The cells obtained were passed through 70 μM nylon cell strainer and centrifuged at 1000 rpm∙min^−1 for 5 min at RT. Pellets were added into 10 mL erythrocytes lysis buffer (150 mM NH4Cl, 10 mM KHCO3 and 0.1 mM EDTA) followed by centrifugation to remove erythrocytes. After washing twice with complete medium (RPMI 1640 containing 100 U∙mL^−1 of penicillin, 100 U∙mL^−1 of streptomycin and 10% FBS), they were re-suspended in the complete medium and used for cell culture.

Take `O=C(NC(=O)c1c(O)cccc1O)NC1c2ccccc2-c2ccccc21` [Compound 1]: the AUC(0-inf) (as a rule, total exposure, with the tail of the curve extrapolated) in “in vivo” (SD rat, Rat 1) is 335 ng·h/mL; in “in vivo” (SD rat, Rat 3) it was 324 ng·h/mL; in “in vivo” (setting [4]), 329 ± 8.08 ng·h/mL. In addition, the Cmax (usually the peak of the concentration-time curve) came out at 698 ng/mL in “in vivo” (SD rat, Rat 1); 1110 ng/mL in “in vivo” (SD rat, Rat 3); 904 ± 292 ng/mL in the data set “in vivo” (setting [4]). The MRT (usually a mean duration of stay, worked out from the concentration-time curve) in “in vivo” (SD rat, Rat 1) came to 0.94 h; in the data set “in vivo” (SD rat, Rat 3) it was 0.55 h; in “in vivo” (setting [4]), 0.75 ± 0.28 h. The half-life (in general, the time needed for the level to fall by half in the phase considered) in “in vivo” (t1/2, SD rat, Rat 1) was 1.84 h; in the data set “in vivo” (t1/2, SD rat, Rat 3), 1.21 h; in the data set “in vivo” (t1/2, SD rats, Mean ± SD (Rat 1 and 3)), 1.53 ± 0.45 h. Moreover, the EC50 (usually the concentration giving half of the maximal effect) in the data set with HCV Con1-1b replicon was found to be 780 ± 190 nM; in the data set on HCV H77-1a replicon, 1110 ± 330 nM; in data set [2] (setting [5]) it was 520 ± 160 nM; in data set [2] (setting [6]), 670 ± 230 nM; in the data set on HCV JFH1-2a replicon (setting [7]), 920 ± 120 nM; with HCV JFH1-2a replicon (setting [8]), 920 ± 120 nM. Also, in the data set with JFH1-2a (S282T) virus, the EC50 amounted to 560 ± 130 nM. In addition, the “plasma concentration after 5 min (mean ± SD)” value in data set [1] is 904.5 ± 291.9 ng/mL. The IC50 (as a rule, the point on the concentration scale where inhibition reaches its midpoint) with B spleen cells turned out to be 51900 ± 8680 nM; in the data set on T spleen cells it was 33000 ± 5720 nM. Also, the CC50 (in general, the concentration giving 50% cytotoxicity) at 48 h was above 16000 nM in data set [3] (Huh 7.5.1 cells, Table 4, 48 h) and above 20000 nM in data set [3] (Huh 7.5.1 cells, Table 5).
As for `CC(=O)Oc1cccc(O)c1C(=O)NC(=O)NC1c2ccccc2-c2ccccc21` [Compound 14, 1-(2-Acetoxy-6-hydroxybenzoyl)-3-(9H-fluoren-9-yl)-urea], the EC50 was determined as 800 ± 230 nM in the data set with HCV Con1-1b replicon; 770 ± 370 nM in the data set with HCV H77-1a replicon; 710 ± 340 nM in data set [2] (setting [6]); 550 ± 30 nM in the data set with HCV JFH1-2a replicon (setting [7]); 550 ± 30 nM with HCV JFH1-2a replicon (setting [8]). Moreover, the half-maximal inhibitory concentration (IC50) at CypA is 2430 ± 500 nM. In data set [3] (Huh 7.5.1 cells, Table 4, 48 h), the CC50 at 48 h is above 16000 nM.
As to `O=C(NC(=O)c1c(O)cccc1OC(=O)c1ccccc1)NC1c2ccccc2-c2ccccc21` [Compound 18, 1-(2-Benzoyloxy-6-hydroxybenzoyl)-3-(9H-fluoren-9-yl)-urea], the melting point (usually the temperature of the solid-liquid transition) lay within 211 to 214 °C. Besides, the EC50 in the data set on HCV Con1-1b replicon is 1030 ± 20 nM. For the same molecule, the EC50 with HCV H77-1a replicon was found to be 600 ± 350 nM. The IC50 against CypA stood at 1990 ± 470 nM. Besides, the EC50 in data set [2] (setting [6]) amounted to 700 ± 230 nM. The EC50 in the data set on HCV JFH1-2a replicon (setting [8]) is 1050 ± 10 nM. The same molecule had a CC50 at 48 h in [3] (Huh 7.5.1 cells, Table 4, 48 h) above 16000 nM.
For `C/C=C/C[C@@H](C)[C@@H](O)[C@H]1C(=O)N[C@@H](CC)C(=O)N(C)[C@H](SCCN(C)C)C(=O)N(C)[C@@H](CC(C)(C)O)C(=O)N[C@@H](C(C)C)C(=O)N(C)[C@@H](CC(C)C)C(=O)N[C@@H](C)C(=O)N[C@H](C)C(=O)N(C)[C@@H](CC(C)C)C(=O)N(C)[C@@H](CC(C)C)C(=O)N(C)[C@@H](C(C)C)C(=O)N1C` [SCY-635], the EC50 with HCV subgenomic replicon (ref [27], read-out: EC50 (subgenomic replicon assay, con1-derived)) was 100 nM.
For `CC(C)OC(=O)[C@H](C)N[P@](=O)(OC[C@H]1O[C@@H](n2ccc(=O)[nH]c2=O)[C@](C)(F)[C@@H]1O)Oc1ccccc1` [Sofosbuvir, reference compound], the half-maximal effective concentration (EC50) in [2] (setting [5]) was found to be 220 ± 70 nM; in the data set with JFH1-2a (S282T) virus, 1140 ± 210 nM. Moreover, the CC50 at 48 h in [3] (Table 5) is above 20000 nM.
`C/C=C/C[C@@H](C)[C@@H](O)[C@H]1C(=O)N[C@@H](CC)C(=O)N(C)[C@H](C)C(=O)N(CC)[C@@H](C(C)C)C(=O)N[C@@H](C(C)C)C(=O)N(C)[C@@H](CC(C)C)C(=O)N[C@@H](C)C(=O)N[C@H](C)C(=O)N(C)[C@@H](CC(C)C)C(=O)N(C)[C@@H](CC(C)C)C(=O)N(C)[C@@H](C(C)C)C(=O)N1C` [alisporivir]: the EC50 with HCV subgenomic replicon (ref [6], read-out: EC50 (subgenomic replicon assay)) was 45 nM.
